Experiment [1] relates to Human primary melanocytes. Kind of experiment: Melanin content assay. Particulars: Melanocyte, 72 h. Format: cell-based. As to the method:
Human primary melanocytes (Cascade Biologics, now ThermoFisher Scientific) were grown in melanocytes growth medium (MGM) with human melanocyte growth supplement (both media components from ThermoFisher Scientific). Melanocytes were seeded at 5×10^4 cells/well in 24 well-plates and incubated in a humidified incubator at 37° C. with 5% CO2 atmosphere. After 24 hours of incubation, cell cultures were treated with the GAP amino acids or additional test reagents above-described, alone or in combination, as described in examples below. The vehicle control consisted of cells treated with the vehicle (0.002 mM NaOH) alone. After treatment, cells were again incubated for 72 hours in a humidified incubator at 37° C. with 5% CO2 atmosphere. At the end of the 72 hour incubation, the culture medium was replaced with 120 uL/well of melanin content assay reagent (10% DMSO in 1M sodium hydroxide) and incubated for 1 hour at 60° C. in a shaker incubator. The supernatant was then transferred to a 384 well plate. The absorbance was measured by spectrophotometric analysis at 405 nm with a micro plate reader (GEnios Pro, Tecan).
The spectrophotometric optical density at 405 nm for untreated cells (no active) was considered as 100% melanin content. Relative melanin content for treated samples was calculated with normalization based on the untreated (media/vehide) control.

In a further experiment the target is T1, tyrosinase (Homo sapiens, UniProt P14679).
T1 construct: host or cells: human primary melanocytes
T1 sequence (P14679 19-529): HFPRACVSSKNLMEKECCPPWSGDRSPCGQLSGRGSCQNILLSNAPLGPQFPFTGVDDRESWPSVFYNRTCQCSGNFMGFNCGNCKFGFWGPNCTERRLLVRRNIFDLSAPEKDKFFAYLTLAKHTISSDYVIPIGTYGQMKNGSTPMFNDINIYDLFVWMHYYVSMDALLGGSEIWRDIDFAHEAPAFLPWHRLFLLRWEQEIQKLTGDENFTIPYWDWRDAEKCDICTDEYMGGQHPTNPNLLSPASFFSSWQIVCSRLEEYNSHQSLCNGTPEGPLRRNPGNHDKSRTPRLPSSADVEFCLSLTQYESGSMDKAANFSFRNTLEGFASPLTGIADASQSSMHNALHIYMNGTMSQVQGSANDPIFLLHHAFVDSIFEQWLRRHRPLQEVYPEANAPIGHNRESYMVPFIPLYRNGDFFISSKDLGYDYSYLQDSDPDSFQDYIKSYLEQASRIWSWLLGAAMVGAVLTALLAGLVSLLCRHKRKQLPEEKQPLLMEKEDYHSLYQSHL
Kind of experiment: Tyrosinase activity assay (in situ, melanocyte lysate). Type of experiment: cell-based. Particulars: Table 1B, 72 h. As to the method:
Human primary melanocytes (Cascade Biologics, now ThermoFisher Scientific) were grown in melanocytes growth medium (MGM) with human melanocyte growth supplement (both media components from ThermoFisher Scientific). Melanocytes were seeded at 1×10^4 cells/well in a 96 wells plate and cultures left undisturbed for 24 hours in a 5% CO2 humidifed incubator at 37° C. At 24 hrs post-seeding, cells were treated with GAP amino acids or additional test reagents above-described, alone or in combination, as described in examples below and left undisturbed for another 72 hours. Subsequently, cell viability was assessed and the cells were then lysed and progressed for determination of in situ tyrosinase activity. Cultures were rinsed twice with 1× phosphate-buffered saline and lysed with 40 uL of 0.5% TritonX 100 for 1 hr on an ice bed. In situ tyrosinase activity was visualized by addition of 60 μl of 50 mM potassium phosphate buffer (pH 6.8) containing 2 mM DOPA (3,4 dihydroxy phenylalanine) and 4 mM MBTH reagent (3-Methyl-2-Benzothiazolinone hydrazone hydrochloride) for 1 hour at 37° C. The reaction was stopped by the addition of 100 uL of ice-cold 10% tricholoracetic acid and then centrifuged at approximately 300 g for 10 minutes at 4° C. The soluble supernatant was separated from the pellet and the optical density read in a TECAN plate-reader (540 nm filter). The spectrophotometric optical density at 540 nm for untreated cells (media/vehicle) is considered as 100% tyrosinase activity. Tyrosinase activity is expressed after correction for cell numbers (activity/viability) and represented as % control.

Read-outs that look alike come from different tables or passages of the source.

The values below come from US11077039B2, “Topical skin lightening additive and composition with amino acids and nicotinamide compounds” (Conopco, Inc., priority 2016, dated 2021).

Turning to `NC(=O)c1ccc[n+]([C@@H]2O[C@H](CO)[C@@H](O)[C@H]2O)c1` [Nicotinamide Riboside, nicotinamide riboside], the inhibition at 1 µM in experiment [1] (Table 1E, Nicotinamide Riboside 1 uM, alone or with GAP, read-out: Melanin synthesis inhibition, Mean of % Inhibition) worked out at 4%. In experiment [1] (Table 1E, Nicotinamide Riboside 2.5 uM, alone or with GAP, read-out: Melanin synthesis inhibition, Mean of % Inhibition), the inhibition at 2.5 µM turned out to be 9%.
Take `NC(=O)c1cccnc1` [Nicotinamide, nicotinamide]: the inhibition at 5000 µM is 16% on tyrosinase (Nicotinamide 5 mM, alone or with GAP) and 9% in experiment [1] (Table 1A, Nicotinamide 5 mM, alone or with GAP, read-out: Melanin synthesis inhibition, Mean of % Inhibition). Also, the inhibition at 10000 µM at tyrosinase (Nicotinamide 10 mM, alone or with GAP) is 24%; in experiment [1] (Table 1A, Nicotinamide 10 mM, alone or with GAP, read-out: Melanin synthesis inhibition, Mean of % Inhibition), 10%.
For the compound `CNC(=O)c1cccnc1` [N-methyl Nicotinamide, n-methyl-nicotinamide], in experiment [1] (Table 1C, N-methyl Nicotinamide 5 mM, alone or with GAP, read-out: Melanin synthesis inhibition, Mean of % Inhibition), the inhibition at 5000 µM was 0%. Also, the inhibition at 10000 µM in experiment [1] (Table 1C, N-methyl Nicotinamide 10 mM, alone or with GAP, read-out: Melanin synthesis inhibition, Mean of % Inhibition) was found to be 7%.
Consider `CCCCCCc1ccc(O)cc1O` [HR, 4-hexylresorcinol], for which the inhibition at 10 µM on tyrosinase (HR 10 uM) was found to be 67%; in experiment [1] (Table 1A, HR 10 uM, read-out: Melanin synthesis inhibition, Mean of % Inhibition), 35%; in experiment [1] (Table 1C, HR 10 μM, read-out: Melanin synthesis inhibition, Mean of % Inhibition), 26%; in experiment [1] (Table 1D, HR 10 uM, read-out: Melanin synthesis inhibition, Mean of % Inhibition), 32%; in experiment [1] (Table 1E, HR 10 uM, read-out: Melanin synthesis inhibition, Mean of % Inhibition), 28%; in experiment [1] (Table 2, HR 10 uM, read-out: Melanin synthesis inhibition, Mean of % Inhibition), 36%. Moreover, the inhibition at 10 µM in experiment [1] (Table 2B, HR 10 uM, read-out: Melanin Synthesis inhibition, Mean of % Inhibition) was 32%.
For the compound `NC(=O)c1ccncc1` [Isonicotinamide, isonicotinamide], the inhibition at 5000 µM in experiment [1] (Table 1D, Isonicotinamide 5 mM, alone or with GAP, read-out: Melanin synthesis inhibition, Mean of % Inhibition) was found to be 4%. In addition, the inhibition at 10000 µM in experiment [1] (Table 1D, Isonicotinamide 10 mM, alone or with GAP, read-out: Melanin synthesis inhibition, Mean of % Inhibition) worked out at 20%.
For `NC(=O)c1ccccn1` [Picolinamide, picolinamide], the inhibition at 5000 µM in experiment [1] (Table 2, Picolinamide 5 mM, alone or with GAP, read-out: Melanin synthesis inhibition, Mean of % Inhibition) is 6%. The inhibition at 10000 µM in experiment [1] (Table 2, Picolinamide 10 mM, alone or with GAP, read-out: Melanin synthesis inhibition, Mean of % Inhibition) worked out at 32%.
Consider `O=C(O)c1cccnc1` [Niacin, niacin], for which the inhibition at 5000 µM in experiment [1] (Table 2B, Niacin 5 mM, alone or with GAP, read-out: Melanin Synthesis inhibition, Mean of % Inhibition) is -7%. The inhibition at 10000 µM in experiment [1] (Table 2B, Niacin 10 mM, alone or with GAP, read-out: Melanin Synthesis inhibition, Mean of % Inhibition) is 14%.

One may read the inhibition as the relative decrease from the control value, in per cent.
